Here are results for 12 molecules from article PMC3534310, “Peptide-Modulated Activity Enhancement of Acidic Protease Cathepsin E at Neutral pH” (International Journal of Peptides, 2012).

For test [1], the target named is T1, cathepsin E (Rattus norvegicus, UniProt P16228).
T1 construct: Cathepsin E was isolated from rat spleens as previously described; from tissue; host or cells: rat spleen
T1 sequence (P16228 59-398): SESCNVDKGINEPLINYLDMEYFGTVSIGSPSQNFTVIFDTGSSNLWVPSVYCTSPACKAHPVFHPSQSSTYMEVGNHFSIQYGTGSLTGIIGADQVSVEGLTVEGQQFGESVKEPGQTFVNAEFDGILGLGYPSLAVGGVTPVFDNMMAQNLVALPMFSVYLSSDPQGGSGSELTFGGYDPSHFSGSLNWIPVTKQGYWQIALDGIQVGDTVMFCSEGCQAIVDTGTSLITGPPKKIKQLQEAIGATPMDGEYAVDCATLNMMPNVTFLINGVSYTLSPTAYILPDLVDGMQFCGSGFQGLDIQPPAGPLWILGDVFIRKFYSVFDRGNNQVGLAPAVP
The test is described as follows: Cathepsin E protease activity assay (fluorogenic substrate, neutral pH). The test is classed as biochemical. The conditions noted are these: 20 nM cathepsin E + 20 nM peptide; for Activity (%), value in parentheses: Table 2, value in parentheses. On the procedure: (§1) Cathepsin E was isolated from rat spleens as previously described. The fluorogenic substrate for cathepsin E at neutral pH (pH 7.4) was the same as previously reported. The fluorogenic substrate (10 mM) was prepared by dissolving in 100% DMSO and diluting in reaction buffer immediately before use.
Activation of cathepsin E by the selected peptides was determined as previously described. The selected peptides were prepared by in vitro translation or chemical synthesis. A solution containing 20 nM cathepsin E was pre incubated with 20 nM of selected peptides in Selection buffer (50 mM Tris-HCl, 100 mM NaCl, pH 7.4) at 25°C for 10 min. Next, the fluorogenic substrate was added (5 μM) and the mixture was incubated at 37°C for 1 h for the enzyme reaction. The fluorescent reaction product was monitored at 440 nm (excitation at 340 nm) using Infinite 200 (TECAN, Japan). The percent of cathepsin E activation (A) was calculated by: (1) A = 100×(Sf−Bf)/(Cf−Bf) [% activation], where S f was the fluorescence intensity of the cathepsin E reaction in the presence of a selected peptide, C f was the fluorescence intensity of the control in the absence of a selected peptide, and B f was background fluorescence of the solution containing the fluorogenic substrate only.

For test [2], the target named is T1, cathepsin E. The test is described as follows: Affinity determination by SPR (Biacore2000). The class given is binding. The conditions noted are these: cathepsin E immobilized on CM5 chip, peptide 10-40 nM, running buffer pH 7.4, 1:1 Langmuir fit. The method, then:
as §1
The dissociation constant (K d) of each selected peptide with cathepsin E was determined by the SPR method using a Biacore2000 (GE Healthcare, UK). Cathepsin E was immobilized on a CM5 Biacore sensor chip (GE Healthcare, UK) by the general amine coupling method. A small quantity of acetate buffer (50 mM sodium acetate, 100 mM NaCl, pH 4.5) containing cathepsin E (150 μg/mL) was injected into the flow cell for the sample lane. The reference lane was prepared similarly but without cathepsin E. Different concentrations (10, 20, 30, and 40 nM) of the selected peptide candidates, T4 and T11 were injected into both lanes at a flow rate of 20 ul/min to measure the interaction between cathepsin E and each peptide candidate. For all experiments, a neutral pH buffer (50 mM Tris-HCl, 100 mM NaCl, pH 7.4) was used as the running buffer and a solution of 50 mM NaOH was used to remove the peptides. The resulting sensorgram curves were fit to a 1 : 1 Langmuir binding model, and the K d values were calculated using BIA evaluation software (GE Healthcare, UK).
(Surface plasmon resonance follows binding to a sensor surface in real time, without labels.)

Test [3] concerns caspase-3/7 activity in HeLa cells. The test is described as follows: Apo-ONE Homogeneous Caspase-3/7 assay in HeLa cells. The test is classed as cell-based. The conditions noted are these: for Caspase-3/7 activity: three independent experiments. The method, then: HeLa cells were used for an in vitro cell-based bioassay. Approximately 10,000 HeLa cells were seeded into the wells of a 96-well culture plate (Corning, USA) containing 100 uL of DMEM medium supplemented with 10% FBS and 2% penicillin-streptomycin and incubated overnight at 37°C under 5% CO2. […] After incubation, viable cells were determined with a Cell Counting Kit-F (Dojindo Molecular Technologies, Japan) according to the manufacturer's protocol. Viable cells were identified by their fluorescent emissions intensity using an Infinite 200 (TECAN, Japan) with excitation at 490 nm and emission at 515 nm. To detect apoptotic cells, cells were treated with Annexin V-Cy3 (BioVision, USA) following the manufacturer's protocol. Apoptotic cells were detected by their fluorescent emissions with excitation at 543 nm and emission at 570 nm. To detect caspase-3/7 activity induced by cathepsin E, an Apo-ONE Homogeneous Caspase-3/7 Assay kit (Promega, USA) was used according to the manufacturer's protocol. Activity was detected by fluorescent emissions with excitation at 485 nm and emission at 530 nm. The cathepsin E and selected peptide concentrations used for apoptosis and caspase assays were the same as those used for cell viability assays.

For test [4], the system named is HeLa cells. The test is described as follows: HeLa cell death assay (Cell Counting Kit-F viability, Annexin V-Cy3 apoptosis). The class given is cell-based. On the procedure:
HeLa cells were used for an in vitro cell-based bioassay. Approximately 10,000 HeLa cells were seeded into the wells of a 96-well culture plate (Corning, USA) containing 100 uL of DMEM medium supplemented with 10% FBS and 2% penicillin-streptomycin and incubated overnight at 37°C under 5% CO2. The cells were treated with cathepsin E (77 nM) alone or together with two different concentrations (770 nM, 7.7 μM) of the selected peptide T11 in 100 μL of serum-free Opti-MEM at 37°C for 20 h. After incubation, viable cells were determined with a Cell Counting Kit-F (Dojindo Molecular Technologies, Japan) according to the manufacturer's protocol. Viable cells were identified by their fluorescent emissions intensity using an Infinite 200 (TECAN, Japan) with excitation at 490 nm and emission at 515 nm. To detect apoptotic cells, cells were treated with Annexin V-Cy3 (BioVision, USA) following the manufacturer's protocol. Apoptotic cells were detected by their fluorescent emissions with excitation at 543 nm and emission at 570 nm. To detect caspase-3/7 activity induced by cathepsin E, an Apo-ONE Homogeneous Caspase-3/7 Assay kit (Promega, USA) was used according to the manufacturer's protocol. Activity was detected by fluorescent emissions with excitation at 485 nm and emission at 530 nm. […]
A general note: Formazan colour is commonly taken as a measure of viable cells.

For test [5], the target named is T2, peptide T4.
T2 chain: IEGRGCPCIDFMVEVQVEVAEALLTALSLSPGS
The test is described as follows: SPR.

[6] abbreviates: Table 1, cathepsin E activity alone = 100%, pH 7.4, pre-incubation 25°C 10 min, 5 μM substrate, 37°C 1 h, peptide by in vitro translation (italics) or chemical synthesis.
Where [7] appears, read: pH 7.4, 37°C 1 h, peptide by in vitro translation (italic) or chemical synthesis.
Setting [8] is: Table 2, value outside parentheses, pH 7.4, 37°C 1 h, peptide by in vitro translation (italic) or chemical synthesis.

Peptide text beside a SMILES is read from it.

In the case of GSPCIGII [Peptide S2], in test [1] (setting [6]), the “Activity (%)” value is reported as 133%.

Consider `CC[C@H](C)[C@H](N)C(=O)N[C@@H](CCC(=O)O)C(=O)NCC(=O)N[C@@H](CCCNC(=N)N)C(=O)NCC(=O)N[C@@H](CS)C(=O)N1CCC[C@H]1C(=O)N[C@@H](CS)C(=O)N[C@H](C(=O)N[C@@H](CC(=O)O)C(=O)N[C@@H](Cc1ccccc1)C(=O)N[C@@H](CCSC)C(=O)N[C@H](C(=O)N[C@@H](CCC(=O)O)C(=O)N[C@H](C(=O)N[C@@H](CCC(N)=O)C(=O)N[C@H](C(=O)N[C@@H](CCC(=O)O)C(=O)N[C@H](C(=O)N[C@@H](C)C(=O)N[C@@H](CCC(=O)O)C(=O)N[C@@H](C)C(=O)N[C@@H](CC(C)C)C(=O)N[C@@H](CC(C)C)C(=O)N[C@H](C(=O)N[C@@H](C)C(=O)N[C@@H](CC(C)C)C(=O)N[C@@H](CO)C(=O)N[C@@H](CC(C)C)C(=O)N[C@@H](CO)C(=O)N1CCC[C@H]1C(=O)NCC(=O)N[C@@H](CO)C(=O)O)[C@@H](C)O)C(C)C)C(C)C)C(C)C)C(C)C)[C@@H](C)CC` [Peptide T4] (H-IEGRGCPCIDFMVEVQVEVAEALLTALSLSPGS-OH), for which the equilibrium dissociation constant (Kd) in test [2] (read-out: dissociation constant (Kd) with cathepsin E) was 2 nM. Also, the “Activity (%), value in parentheses” value in test [1] (setting [7]) was 122%.

On to PGIKIIIIG [Peptide S4], for which, in test [1] (setting [6]), the “Activity (%)” value stood at 151%.

Consider IEGRVGCDFMYVG [Peptide S1], for which the “Activity (%)” value in test [1] (setting [6]) amounted to 130%.

With “IEGRLLSGGAGACSVRTVDDSFDCG [Peptide T11, paired peptide selected from the third library; chemically synthesized, more than 95% purity]”, the “dissociation constant (Kd) with cathepsin E” value in test [2] is listed as “too weak to be determined”. For the same molecule, the Caspase-3/7 activity in test [3] (77 nM cathepsin E + 7.7 μM peptide T11, 24 h) worked out at 188%. Besides, the Caspase-3/7 activation entry in test [3] (T11 added without cathepsin E) is recorded as “not observed”. Besides, the “Activity (%), value in parentheses” value in test [1] (setting [7]) was 138%. Moreover, the “percentage of dying cells” value in test [4] (77 nM cathepsin E with T11 (770 nM, 7.7 μM) versus without T11, 20 h (Figures 3a, 3b)) is “significantly higher”. Further, the effect on cells result in test [4] (peptide alone (without cathepsin E)) is reported as “no effect”.

As for “SDDKSTTLVEVQVEVAEELWRHYHYLLHG [Peptide T6, peptide selected from the paired peptide (third) library]”, the “Activity (%)” value in test [1] (setting [8]) amounted to 118%.

For SGIKVGCDPPSCG [Peptide S9], the “Activity (%)” value in test [1] (setting [6]) is 140%.

PGIKPPPCIIIIG [Peptide S10]: in test [1] (setting [6]), the “Activity (%)” value worked out at 145%.

In the case of SPIISHIVGCDPPSCG [Peptide S7], the “Activity (%)” value in test [1] (setting [6]) came to 160%.

Consider IGCEERSFPNIIIIIG [Peptide S8], for which the “Activity (%)” value in test [1] (setting [6]) amounted to 168%.

Take “SYKDSCIGGRGSGGGPGGIPGRIGYIG [Peptide T7, peptide selected from the paired peptide (third) library]”: the “Activity (%)” value in test [1] (setting [8]) is given as 111%.

B1: Cathepsin E (protein)
chain: SESCNVDKGINEPLINYLDMEYFGTVSIGSPSQNFTVIFDTGSSNLWVPSVYCTSPACKAHPVFHPSQSSTYMEVGNHFSIQYGTGSLTGIIGADQVSVEGLTVEGQQFGESVKEPGQTFVNAEFDGILGLGYPSLAVGGVTPVFDNMMAQNLVALPMFSVYLSSDPQGGSGSELTFGGYDPSHFSGSLNWIPVTKQGYWQIALDGIQVGDTVMFCSEGCQAIVDTGTSLITGPPKKIKQLQEAIGATPMDGEYAVDCATLNMMPNVTFLINGVSYTLSPTAYILPDLVDGMQFCGSGFQGLDIQPPAGPLWILGDVFIRKFYSVFDRGNNQVGLAPAVP
The molecule B1 showed a Kd in test [5] of 2 nM. Moreover, in test [3] (77 nM cathepsin E alone, 24 h), the Caspase-3/7 activity is recorded as 155%.

Broadly, the Kd is a measure of binding affinity in units of concentration.
